Where two headings read alike, the source gives them in different places.
Assays:
[1] = tested on: MRC5-SV2 cell line; conditions: printed in Fig 4; ref [16]; cited from earlier work
[2] = tested on: T. b. brucei; conditions: cited from earlier work; for T.b.b. pEC50: data from original HTS, ref [13]
[3] = tested on: T. cruzi; assay: β-D-Galactosidase transgenic T. cruzi assay (amastigote-infected L6 cells); format: cell-based, T. cruzi Tulahuen C4 strain; conditions: 96 h; for EC50: Trypanosoma cruzi, read-out: T. cruzi pEC50 (converted)
Experimental: The T. cruzi Tulahuen C4 strain, expressing the β-galactosidase gene (LacZ) and L6 rat skeletal muscle cells, used as host cells, were cultured in RPMI-1640 supplemented with 10% iFBS, 2 mM L-glutamine, 100 U/mL penicillin, and 100 μg/mL streptomycin at 37 °C and 5% CO2.
A Thermo Scientific Multidrop Combi dispenser (MTX Lab Systems, Vienna, VA) was used to dispense 90 μL of T. cruzi amastigote–infected L6 cell culture (4×10^3 infected L6 cells per well) into 96-well Corning assay plates (Corning Inc., Corning, NY) already containing 10 μL of the compounds to be screened and controls. The plates were incubated at 37 °C for 96 h. Then, 30 μL of 100 μM CPRG and 0.1% NP40 diluted in PBS were added to each well, and the plates were incubated for 4 h at 37 °C in the dark. Absorbance at 585 nm was measured in a Vmax kinetic microplate reader ([…]). Compound activities were normalized using the in-plate negative (benznidazole at 10 μg/mL) and positive (0.2% DMSO) growth controls.

[4] = tested on: S. mansoni adults and somules; assay: S. mansoni phenotypic assay, adults and somules (severity score); format: cell-based, Schistosoma mansoni (NMRI isolate); conditions: for Adult severity score (10 μM): adults; for Adult severity score (10 μM) / Somule severity score (10 μM): score 0-4; for Somule severity score (10 μM): somules
Experimental: Maintenance of the Schistosoma mansoni life cycle, preparation of somules (post-infective larvae) and adult worms (≥42-days-old), and co-incubation of these stages with test compounds were as described. An NMRI isolate of S. mansoni was used for all whole-organism screens.
Somules (40 units/well/96w round-bottomed plate) or adults (five paris/well/24w plate) were cultured in the presence of compounds at 10 µM and phenotypic changes observed as a function of time using an Zeiss Axiovert A1 inverted microscope (Table S4). A constrained nomenclature was used to describe the effects of compounds on parasites (changes in shape, motility and density). To generate a partially quantitative output for comparing drug effects, each descriptor was awarded a score of 1 and these were summed to a maximum score of 4 [7-10]: evidence of degeneracy or death was awarded the maximum score of 4. For adults specifically, damage to the tegument (outer surface) was also awarded a score of 4 based on the indication that damage to the patrasite’s surface is lethal in vivo [11]. Assays were performed twice and representative data are shown.

[5] = tested on: L. donovani; assay: EC50 in L. donovani (infected THP-1 macrophages, luciferase); format: cell-based, Leishmania donovani MHOM/ET/67/HU3; conditions: 72 h; for EC50: Leishmania donovani, read-out: L. donovani pEC50 (converted)
Experimental: Leishmania donovani MHOM/ET/67/HU3 cells with the luciferase gene integrated into the parasite genome[1] were grown at 28 °C in RPMI 1640-modified medium (Invitrogen) supplemented with 20% FBS with […] of hygromycin B.
The Human myelomonocytic cell line THP-1 was grown at 37 °C and 5% CO2 in RPMI-1640 supplemented with 10% iFBS, 2 mM […], 100 U/mL penicillin and […] streptomycin. 3 x 10^4 THP-1 cells per well in 96-well plates were differentiated to macrophages with 20 ng/mL of PMA treatment for 48 h followed by 24 h of culture in fresh medium.
Macrophage-differentiated THP-1 cells were infected at a macrophage/parasite ratio of 1/10 with stationary L. donovani promastigotes for 24 h at 35 °C and 5% CO2, and extracellular parasites were removed by washing with PBS. Infected cell cultures were then incubated with different compounds concentrations at 37 °C for 72 h. Luminescence was measured using the Promega kit luciferase assay system (Promega, Madison, WI). Assays were performed in duplicate at least twice, to achieve a minimal n=3 per dose response.

[6] = parameters: method as in PMID 25340575; conditions: data from original HTS; ref [13]; cited from earlier work
[7] = Human liver microsomal CLint; format: in vitro ADME; conditions: human liver microsomes
Experimental: In vitro intrinsic clearance determined from human liver microsomes using a standard approach. Following incubation and preparation, the samples are analyzed using LC/MS/MS.

[8] = Aqueous pH 7.4 solubility; format: physicochemical; conditions: aqueous buffer, thermodynamic from solid; pH 7.4 phosphate buffer, 25 °C, 20-24 h; read-out: Aq. Solubility
Experimental: Compounds are dried down from 10 mM DMSO solutions using centrifugal evaporation technique. Phosphate buffer (0.1 M pH 7.4) added and StirStix inserted in the glass vials, shaking is then performed at a constant temperature of 25 °C for 20-24 h. This step is followed by double centrifugation with a tip wash in between, to ensure that no residues of the dried compound are interfering. The solutions are diluted before analysis and quantification using LC/MS/MS is performed.

[9] = Shake-flask octanol-water Log D7.4; format: physicochemical; conditions: pH 7.4, octanol-water shake-flask
Experimental: Shake-flask octanol-water distribution coefficient at pH 7.4 (Log D7.4). The aqueous solution used is 10 mM sodium phosphate pH 7.4 buffer. The method has been validated for Log D7.4 ranging from -2 to 5.0.

[10] = Human plasma protein binding (equilibrium dialysis); format: in vitro ADME
Experimental: PPB is determined using equilibrium dialysis (RED device) to separate free from bound compound. The amount of compound in plasma (10 µM initial concentration) and in dialysis buffer (pH 7.4 phosphate buffer) is measured by LC-MS/MS after equilibration at 37 °C in a dialysis chamber. The fraction unbound (fu) is reported.

[11] = tested on: MRC5-SV2 cell line; assay: Cytotoxicity assay in MRC5 (resazurin, 48 h); format: cell-based, human; conditions: MRC5 toxicity
Experimental: For dose-response experiments, compound plates were prepared for each analogue by serial 3-fold dilutions in 100% DMSO. Five concentration points (mammalian cytotoxicity) or ten concentration points (parasite growth inhibition), were made in 96-well transparent Nunclon plates. Pentamidine is routinely included in compound plates as internal quality control, and plates are stored sealed at -20 °C for no more than four weeks. Intermediate plates were made as described, adding 95 μL of DMEM complete media to 5 μL of compound per well setting a 5% DMSO amount. Log-phase MRC5 cells were removed from a T-75 TC flask using TrypLE® Express (Thermo®) and dispersed by gentle pipetting. Cell density was adjusted to working concentration in prewarmed DMEM medium: 25,000 cells in 90 μL of culture were plated in 96-well transparent Nunclon plates and let to settle for 24 h at 37 °C and 5% CO2. After settling incubation, 10 μL of fresh made intermediate plate were added per well: final maximal concentration for compounds was 50 μM in 0.5% DMSO per well. […] Fluorescence was read in an Infinite F200 plate reader (Tecan®) at 550 nm (excitation filter) and 590 nm (emission filter). A 4-parameter equation was used to fit the dose-response curves and determination of EC50 by SigmaPlot ® 13.0 software. Assays were performed in duplicate at least twice for positive compounds, to achieve a minimal n=3 per dose response.

[12] = tested on: T. b. brucei; assay: T. b. brucei growth inhibition EC50 assay (resazurin, 72 h); format: cell-based, Trypanosoma brucei brucei Lister 427
Experimental: Mid-log phase growth T. b. brucei was diluted to a working cell density of 2,750 cells/mL and 90 μL/well dispensed into 96-well flat-bottom transparent assay plates (Nunc). Ten μL/well from intermediate plates were added. The final top concentration of compounds was 40 μM in 0.4% DMSO per well.
Assay plates were incubated for 72 h at 37°C and 5% CO2. Four hours prior to the end of the incubation, 20 μL of a 440 μM resazurin solution in prewarmed HMI-9 was added to each well and incubated for another 4 h. Fluorescence was then measured in an Infinite F200 plate reader (Tecan) at 550 nm (excitation filter) and 590 nm (emission filter). A 4-parameter equation was employed to fit the dose-response curves and determine of EC50 using the SigmaPlot 13.0 software. Assays were performed in duplicate at least twice, to achieve a minimal n = 3 per dose response.
Bloodstream Trypanosoma brucei brucei Lister 427 was cultured in Hirumi’s modified Iscove’s medium (HMI-9), supplemented with 10% heat-inactivated FBS, at 37 °C and 5% CO2 in T-25 vented flask (Corning®).
For dose-response experiments, compound plates were prepared for each analogue by serial 3-fold dilutions in 100% DMSO. Five concentration points (mammalian cytotoxicity) or ten concentration points (parasite growth inhibition), were made in 96-well transparent Nunclon plates. Pentamidine is routinely included in compound plates as internal quality control, and plates are stored sealed at -20 °C for no more than four weeks.

[13] = Rat hepatocyte CLint; format: in vitro ADME; conditions: rat hepatocytes
Experimental: In vitro intrinsic clearance determined from rat hepatocytes using a standard approach. Following incubation and preparation, the samples are analyzed using LC/MS/MS.

| Compound | EC50 [3] [µM] | Adult severity score (10 μM) ([4]; 3h) | Adult severity score (10 μM) ([4]; 6h) | Adult severity score (10 μM) ([4]; 24h) | Adult severity score (10 μM) ([4]; 48h) | Somule severity score (10 μM) ([4]; 24h) | Somule severity score (10 μM) ([4]; 48h) | EC50 [5] [µM] | T.b.b. pEC50 [2] | Kinetic aq. solubility [6] [µM] | MRC5 pTC50 [11] | also measured |
| --- | --- | --- | --- | --- | --- | --- | --- | --- | --- | --- | --- | --- |
| CCS(=O)(=O)Nc1ccc2c(c1)/C(=C(/Nc1ccc(CN3CCCCC3)cc1)c1ccccc1)C(=O)N2 [Hesperadin, reference compound] |  |  |  |  |  |  |  |  |  |  |  | MRC5 pTC50 [1]: 6.69; T.b.brucei pEC50 ([2]; printed in Fig 4, ref [16]): 7.22 |
| CC(C)=Cc1cccc2c1C(=NNc1ccc(S(N)(=O)=O)cc1)C(=O)N2 [NEU-1183] | 0.724 | 2 | 2 | 2 | 2 | 1 | 4 | > 5.01 | 7.6 | <5 |  | activity against S. mansoni adults and/or somules ([4]; 10 μM): moderate and variable activity |
| NS(=O)(=O)c1ccc(N/N=C2\C(=O)Nc3ccc4ncccc4c32)cc1 [NEU-1184] |  |  |  |  |  |  |  |  | 7.1 | 7.7 |  |  |
| NS(=O)(=O)c1ccc(N/N=C2\C(=O)Nc3ccc(-c4cnco4)cc32)cc1 [NEU-1185] |  |  |  |  |  |  |  |  | 6.4 | 18 |  |  |
| O=C1Nc2ccccc2C1=NNc1ccccc1 [NEU-2116, (Z)-3-(2-Phenylhydrazono)indolin-2-one] | > 10 | 0 | 0 | 0 | 1 | 0 | 0 | > 10 |  |  | <4.3 | microsomal CLint ([7]; read-out: HLM Clint): 184 µL/min/mg; solubility [8]: < 2 µM; logD [9]: > 3.8; fraction unbound at 10 µM ([10]; pH 7.4, read-out: PPB (converted)): < 0.02; EC50 ([12]; Trypanosoma brucei, 72 h, read-out: T.b.b. pEC50 (converted)): 12.6 µM |
| (Z)-3-(2-(4-((Piperidin-1-ylmethyl)sulfonyl)phenyl)hydrazineylidene)indolin-2-one [NEU-4893] |  |  |  |  |  |  |  |  |  |  | <4.3 | T. cruzi pEC50 [3]: <4.70; L. donovani pEC50 [5]: <5.30; HLM Clint [7]: <3 µL/min/mg; LogD (7.4) [9]: 2.2; PPB ([10]; 10 µM): 90%; Rat Hepatocyte Clint [13]: 148 µL/min/10^6 cells; activity against T. brucei [12]: inactive; T.b.b. pEC50 ([12]; 72 h, resazurin, error within ±0.20 (Table 2) or ±0.08 (Table 3) log units): 5.0 |

Source: paper PMC6383948, “Evaluation of a class of isatinoids identified from a high-throughput screen of human kinase inhibitors as anti-Sleeping Sickness agents” (PLoS Neglected Tropical Diseases, 2019)
